The results in this text go back to patent publication US11958861B2, “Spirocyclic lactams as JAK2 V617F inhibitors” (Incyte Corporation, priority 2021, dated 2024).

In assay [1] the target is T1, pseudo-kinase domain (JH2, amino-acids 536-812) of human V617F mutant JAK2 (Homo sapiens, UniProt O60674, F794H/V617F/W659A/W777A).
T1 construct: pseudo-kinase domain (JH2, amino-acids 536-812 with 3 surface mutations W659A, W777A, F794H); purchased BPS Bioscience 79498; host or cells: baculovirus expression system
Kind of assay: JAK2 LanthaScreen JH2-V617F Binding Assay. The settings on record: 1 hour at 25° C. On the procedure:
Example C. JAK2 LanthaScreen JH2-V617F Binding Assay
(§1) JAK2 JH2-V617F binding assay utilizes pseudo-kinase domain (JH2, amino-acids 536-812 with 3 surface mutations W659A, W777A, F794H) of human V617F mutant JAK2 expressed as C-terminal His-Avi-tagged, biotinylated protein in a baculovirus expression system (BPS Bioscience, Catalog #79498). The assay was conducted in black 384-well polystyrene plates in a final reaction volume of 20 μL. JAK2 JH2-V617F (0.26 nM) was incubated with compounds (100 nL serially diluted in DMSO) in the presence of 50 nM Fluorescent JAK2-JH2 Tracer (MedChem Express Catalog #HY-102055) and 0.25 nM Streptavidin-Tb cryptate (Cisbio Part #610SATLB) in assay buffer (50 mM Tris, pH=7.5, 10 mM MgCl2, 0.01% Brij-35, 0.1% BSA, 1 mM EGTA, 5% Glycerol and 5 mM DTT). Non-specific binding was accessed in the presence of 2 mM ATP. After incubation for 1 hour at 25° C., LanthaScreen signals were read on a PHERAstar FS plate reader (BMG LABTECH). Data was analyzed with IDBS XLfit and GraphPad Prism 5.0 software using a four parameter dose response curve to determine IC50 for each compound.

Assay [2] addresses T2, pseudo-kinase domain (JH2, amino-acids 536-812) of human Wild Type JAK2 (Homo sapiens, UniProt O60674, F794H/W659A/W777A).
T2 construct: pseudo-kinase domain (JH2, amino-acids 536-812 with 3 surface mutations W659A, W777A, F794H); purchased BPS Bioscience 79463; host or cells: baculovirus expression system
In words: JAK2 LanthaScreen JH2-WT Binding Assay. The settings on record: 1 hour at 25° C. On the procedure: Example B. JAK2 LanthaScreen JH2-WT Binding Assay
as §1, with “JH2-WT” for “JH2-V617F”, “Wild Type” for “V617F mutant”, “#79463).” for “#79498).”, “JH2-WT (0.145” for “JH2-V617F (0.26”

In assay [3] the target is T3, catalytic domain (JH1, amino acids 826-1132) of human JAK2 (Homo sapiens, UniProt O60674).
T3 construct: catalytic domain (JH1, amino acids 826-1132) of human JAK2; purchased Carna Biosciences 08-445-20N; host or cells: baculovirus expression system
In words: JAK2 LanthaScreen JH1 Binding Assay. The conditions noted are these: 2 hours at 25° C. On the procedure: Example A. JAK2 LanthaScreen JH1 Binding Assay
JAK2 JH1 binding assay utilizes catalytic domain (JH1, amino acids 826-1132) of human JAK2 expressed as N-terminal FLAG-tagged, biotinylated protein in a baculovirus expression system (Carna Biosciences, Product #08-445-20N). The assay was conducted in black 384-well polystyrene plates in a final reaction volume of 20 μL. JAK2 JH1 (1.5 nM) was incubated with compounds (100 nL serially diluted in DMSO) in the presence of 50 nM Fluorescent JAK2-JH1 Tracer and 0.5 nM Streptavidin-Tb cryptate (Cisbio Part #610SATLB) in assay buffer (50 mM Tris, pH=7.5, 10 mM MgCl2, 0.01% Brij-35, 0.1% BSA, 1 mM EGTA, 5% Glycerol and 5 mM DTT). Non-specific binding was accessed in the presence of 2 mM ATP. After incubation for 2 hours at 25° C., LanthaScreen signals were read on a PHERAstar FS plate reader (BMG LABTECH). Data was analyzed with IDBS XLfit and GraphPad Prism 5.0 software using a four parameter dose response curve to determine IC50 for each compound.
(In general: In TR-FRET formats the signal depends on donor and acceptor labels being close together.)

Assay [4] concerns the target T4, catalytic domain (JH1, amino acids 808-1132) of human JAK2 (Homo sapiens, UniProt O60674).
T4 construct: catalytic domain (JH1, amino acids 808-1132) of human JAK2; His (N); purchased BPS Bioscience 40450; host or cells: baculovirus expression system
Kind of assay: JAK2 HTRF Enzyme Activity Assay. In kind it is biochemical. The conditions noted are these: ATP 30 μM, read-out: ENZ 30UMATP. On the procedure:
Example D. JAK2 HTRF Enzyme Activity Assay
JAK2 enzyme activity assays utilize catalytic domain (JH1, amino acids 808-1132) of human JAK2 expressed as N-terminal His-tagged protein in a baculovirus expression system (BPS Bioscience, Catalog #40450). The assays was conducted in black 384-well polystyrene plates in a final reaction volume of 20 μL. JAK2 (0.015 nM) was incubated with compounds (100 nL serially diluted in DMSO) in the presence of ATP (30 μM or 1 mM) and 500 nM Biotin-labeled […] (SEQ ID NO.: 1) peptide (BioSource International, custom synthesis) in assay buffer (50 mM Tris, pH=7.5, 10 mM MgCl2, 0.01% Brij-35, 0.1% BSA, 1 mM EGTA, 5% Glycerol and 5 mM DTT) for 60 minutes at 25° C. The reactions were stopped by the addition of 10 μL of detection buffer (50 mM Tris, pH 7.8, 0.5 mg/mL BSA, 150 mM NaCl), supplemented with EDTA, LANCE Eu-W1024 anti-phosphotyrosine (PY20), (PerkinElmer, Catalog #AD0067) and Streptavidin SureLight APC (PerkinElmer Catalog #CR130-100), for a final concentration of 15 mM, 1.5 nM and 75 nM, respectively. HTRF signals were read after 30 minutes incubation at room temperature on a PHERAstar FS plate reader (BMG LABTECH). Data was analyzed with IDBS XLfit and GraphPad Prism 5.0 software using a four parameter dose response curve to determine IC50 for each compound.

Where a name gives a salt, the structure may show the parent alone. Bounds are passed on as bounds.

T2 sequence (O60674 536-812 W659A/W777A/F794H): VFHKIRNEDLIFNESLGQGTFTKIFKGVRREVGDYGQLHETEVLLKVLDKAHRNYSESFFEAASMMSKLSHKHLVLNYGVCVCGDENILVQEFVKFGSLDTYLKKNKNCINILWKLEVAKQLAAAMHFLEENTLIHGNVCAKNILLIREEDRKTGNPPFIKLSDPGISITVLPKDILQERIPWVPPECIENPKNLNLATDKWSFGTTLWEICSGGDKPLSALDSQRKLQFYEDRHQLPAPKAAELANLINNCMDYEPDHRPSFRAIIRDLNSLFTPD
T4 sequence (O60674 808-1132): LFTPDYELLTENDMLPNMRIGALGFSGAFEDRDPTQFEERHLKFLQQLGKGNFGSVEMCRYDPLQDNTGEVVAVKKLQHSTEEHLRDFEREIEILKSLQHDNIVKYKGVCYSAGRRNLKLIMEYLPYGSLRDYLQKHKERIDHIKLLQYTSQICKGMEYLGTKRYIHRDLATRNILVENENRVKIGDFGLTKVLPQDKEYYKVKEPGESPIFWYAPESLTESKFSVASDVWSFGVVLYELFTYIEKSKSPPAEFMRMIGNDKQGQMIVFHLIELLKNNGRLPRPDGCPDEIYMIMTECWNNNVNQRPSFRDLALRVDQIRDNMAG
T1 sequence (O60674 536-812 V617F/W659A/W777A/F794H): as the sequence (O60674 536-812 W659A/W777A/F794H) above, with V82F counted along it
T3 sequence (O60674 826-1132): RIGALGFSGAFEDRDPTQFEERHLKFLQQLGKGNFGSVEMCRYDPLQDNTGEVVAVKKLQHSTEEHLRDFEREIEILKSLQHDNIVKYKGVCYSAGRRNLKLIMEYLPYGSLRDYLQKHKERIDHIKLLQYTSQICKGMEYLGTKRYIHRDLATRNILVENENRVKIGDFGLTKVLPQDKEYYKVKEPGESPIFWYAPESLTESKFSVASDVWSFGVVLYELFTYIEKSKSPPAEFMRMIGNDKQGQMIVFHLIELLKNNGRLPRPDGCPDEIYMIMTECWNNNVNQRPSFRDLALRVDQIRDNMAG

“1-(Ethylsulfonyl)-2″-(3-methoxy-1-methyl-1H-pyrazol-4-yl)-6″-methyl-1″-(1-(methyl-d3)-1H-indazol-5-yl)-3″,6″-dihydro-7″H-dispiro[azetidine-3,1′-cyclobutane-3′,8″-dipyrrolo[2,3-b:3′,2′-d]pyridin]-7″-one, trifluoroacetate salt [Example 99]”: the values for the IC50 in assay [1], in assay [2] and in assay [3] were ≤ 100 nM, ≤ 100 nM and > 2500 nM, respectively.

Turning to “2′-(1-(1-Cyclopropylethyl)-1H-pyrazol-4-yl)-1-(ethylsulfonyl)-6′-(methyl-d3)-r-(1-methyl-1H-indazol-5-yl)-3′,6′-dihydro-7′H-spiro[azepane-4,8′-dipyrrolo[2,3-b:3′,2′-d]pyridin]-7′-one, trifluoroacetate salt [Example 104]”, the IC50 in assay [1] was ≤ 100 nM; in assay [2], ≤ 100 nM; in assay [3], 100 to 500 nM; in assay [4], 100 to 500 nM.

Take `CN1C(=O)C2(CCOC2)c2c1cnc1[nH]c(-c3ccc(CN4CCC(S(C)(=O)=O)CC4)cc3)c(-c3ccccc3)c21` (racemic) [Example 2, 6-Methyl-2-(4-((4-(methylsulfonyl)piperidin-1-yl)methyl)phenyl)-1-phenyl-3,4′,5′,6-tetrahydro-2′H,7H-spiro[dipyrrolo[2,3-b:3′,2′-d]pyridine-8,3′-furan]-7-one trifluoroacetate salt]: the IC50 in assay [1] is ≤ 100 nM; in assay [2], ≤ 100 nM; in assay [3] it was > 2500 nM; in assay [4] it was > 2500 nM.

Regarding `CN1C(=O)C2(CCN(C(=O)CC3CCOCC3)C2)c2c1cnc1[nH]c(-c3ccc(CN4CCC(S(C)(=O)=O)CC4)cc3)c(-c3ccccc3)c21` (racemic) [Example 12, 6-Methyl-2-(4-((4-(methylsulfonyl)piperidin-1-yl)methyl)phenyl)-1-phenyl-1′-(2-(tetrahydro-2H-pyran-4-yl)acetyl)-3,6-dihydro-7H-spiro[dipyrrolo[2,3-b:3′,2′-d]pyridine-8,3′-pyrrolidin]-7-one trifluoroacetate salt], the IC50 in assay [1] was 100 to 500 nM; in assay [2], 100 to 500 nM; in assay [3], > 2500 nM; in assay [4] it was > 2500 nM.

Regarding `[2H]C([2H])([2H])n1ncc2cc(-c3c(-c4cnn(C)c4)[nH]c4ncc5c(c34)[C@@]3(CC[C@H](NC(=O)C4(CC(N)=O)CCC4)C3)C(=O)N5C)ccc21` (racemic) [Example 100, trifluoroacetate salt], the IC50 was 500 to 1250 nM in assay [1], 500 to 1250 nM in assay [2] and > 2500 nM in assay [3].

For the compound `CO[C@H]1CC[C@@](CC#N)(N2CCC3(CC2)C(=O)N(C)c2cnc4[nH]c(-c5cnn(C)c5)c(-c5ccc6c(cnn6C)c5)c4c23)CC1` (single isomer, unassigned) [Example 75b, 2-(4-Methoxy-1-(6-methyl-1-(1-methyl-1H-indazol-5-yl)-2-(1-methyl-1H-pyrazol-4-yl)-7-oxo-6,7-dihydro-3H-spiro[dipyrrolo[2,3-b:3′,2′-d]pyridine-8,4′-piperidin]-1′-yl)cyclohexyl)acetonitrile], the IC50 is ≤ 100 nM in assay [1], 500 to 1250 nM in assay [3] and 500 to 1250 nM in assay [4].

Regarding `O=C(O)C(F)(F)F.[2H]C([2H])([2H])n1ncc2cc(-c3c(-c4cnn5c4OCCC5)[nH]c4ncc5c(c34)C3(CC4(CN(S(=O)(=O)CC)C4)C3)C(=O)N5C)ccc21` [Example 98, 2″-(6,7-Dihydro-5H-pyrazolo[5,1-b][1,3]oxazin-3-yl)-1-(ethylsulfonyl)-6″-methyl-1″-(1-(methyl-d3)-1H-indazol-5-yl)-3″,6″-dihydro-7″H-dispiro[azetidine-3,1′-cyclobutane-3′,8″-dipyrrolo[2,3-b:3′,2′-d]pyridin]-7″-one, trifluoroacetate salt], the IC50 in assay [1] is ≤ 100 nM; in assay [2], ≤ 100 nM; in assay [3], > 2500 nM.

Turning to `O=C(O)C(F)(F)F.[2H]C([2H])([2H])n1ccc(-c2[nH]c3ncc4c(c3c2-c2ccc3c(cnn3C)c2)C2(CC3(CCN(C(=O)CCC)CC3)C2)C(=O)N4C)c1` [Example 101, 1″-Butyryl-6-methyl-1-(1-methyl-1H-indazol-5-yl)-2-(1-(methyl-d3)-1H-pyrrol-3-yl)-3,6-dihydro-7H-dispiro[dipyrrolo[2,3-b:3′,2′-d]pyridine-8,1′-cyclobutane-3′,4″-piperidin]-7-one, trifluoroacetate salt], the IC50 in assay [1] was ≤ 100 nM; in assay [2] it was ≤ 100 nM; in assay [3] it was 1250 to 2500 nM.

Consider `O=C(O)C(F)(F)F.[2H]C([2H])([2H])n1ccc(-c2[nH]c3ncc4c(c3c2-c2ccc3c(cnn3C([2H])([2H])[2H])c2)C2(CC3(CCN(C(=O)CCC)CC3)C2)C(=O)N4C)c1` [Example 102, 1″-Butyryl-6-methyl-1-(1-(methyl-d3)-1H-indazol-5-yl)-2-(1-(methyl-d3)-1H-pyrrol-3-yl)-3,6-dihydro-7H-dispiro[dipyrrolo[2,3-b:3′,2′-d]pyridine-8,1′-cyclobutane-3′,4″-piperidin]-7-one, trifluoroacetate salt], for which the IC50 in assay [1] is ≤ 100 nM; in assay [2] it was ≤ 100 nM; in assay [3], > 2500 nM.
